Test results from article PMC11249953, “c-KIT inhibitors reduce pathology and improve behavior in the Tg(SwDI) model of Alzheimer’s disease” (Life Science Alliance, 2024).
Values joined by “and” are separate entries in the source; they are usually repeats but may differ in a detail not shown here. Equal entries are not always repeated. Where two headings read alike, the source gives them in different places.

Legend:
[1] = ref Fowler et al, 2020; cited from earlier work
A53T mice = assay: Novel object recognition, A53T mice; type: in vivo, mouse; conditions: 5 mg/kg
Procedure: Novel object recognition was carried out using a 50 × 50 cm arena with clear walls covered by brown construction paper. Mice were habituated to the room for 30 min each day, before being allowed to freely explore the arena for 5 min two times, for 3 d. On the 4th d, two identical objects were placed in the arena in opposite adjacent corners, 10 cm from the corner of the arena. Mice were placed along the wall opposite from the objects and allowed to freely explore for 10 min. Approach behavior (extending nose toward the object) toward both objects was recorded manually using handheld stop watches and compared with ensure there was no preference for either neutral object. For the probe trial, one object was removed and replaced with a novel object, and mice were again allowed to freely explore for 10 min, with approach time towards the novel and familiar objects recorded. Trials in which the mice explored for less than 1 s were excluded. Discrimination index was calculated by dividing time spent exploring the novel object by total time exploring both objects and was compared for treated versus control animals.

mice = assay: Rotarod (source data sheets only, mouse line not given); type: in vivo; conditions: for Rotarod trial 1 / Rotarod trial 2: Day 1; for Rotarod trial 1 / Rotarod trial 2 / Rotarod trial 3 / Rotarod trial 4 / Rotarod trial 5 / Rotarod trial 6 / Rotarod D1 AVG / Rotarod D2 AVG / Rotarod D3 AVG / Rotarod Total AVG: individual mice, listed as 143; for Rotarod trial 3 / Rotarod trial 4: Day 2; for Rotarod trial 5 / Rotarod trial 6: Day 3
TgAPP mice = assay: Elevated plus maze, TgAPP mice; type: in vivo, mouse; conditions: 45 mg/kg IP, 6 wk, vs DMSO
Procedure: The elevated plus maze was performed using a standard set up, with two enclosed arms and two open arms. Mice were placed at the intersection of the open and closed arms and allowed to freely explore for 5 min, two times. Time spent in the open and closed arms and number of entries into the open and closed arms were recorded.

[2] = Pharmacokinetic analysis of BK40197 (brain and serum, LC-MS/MS); type: in vivo, C57BL/6 mice; conditions: for Kp / Tmax / AUC / Cmax: both sexes, C57BL/6, mouse; for Kp: brain/serum, intraperitoneal, read-out: brain to serum ratio
Procedure: The PK profile of BK40197 was investigated after single IP doses of 20 and 45 mg/kg BK40197 to male and female 5–6 mo old C57BL/6 mice compared with DMSO. A solution at 5 ng/ml isotope labelled reference compounds d8-BK40197 was prepared. The solvent used for internal standard (ISTD) dilution is (200 ml/50 ml) acetonitrile/ethyl acetate (ACN/EtOAc). Brain tissue was homogenized in ice water bath and was prepared using weight accurately on analytical balance with 4 decimals. A volume water (MilliQ) was added by adjustable 100–1,000 μl to a concentration at 100 mg brain tissue/ml water. Brain homogenate (25 μl) and plasma sample (25 μl) that was thawed to RT and gently mixed were pipetted to eppendorf tube with lid and 75 μl ISTD added, mixed on vortex and centrifuged for 5 min at […]. A volume of 25 μl milli-Q water and 75 μl brain or plasma samples were added into a 200 μl PE vial and mixed on vortex and 10 μl and injected on LC-MS/MS. All animal work was approved by GUACUC.

Cc1cccc(-c2cc3nccc(Nc4ccccc4)c3s2)c1 [BK40143]
brain penetrance [1]: brain penetrant
novel object recognition (A53T mice): significant improvements on novel object recognition
Rotarod D1 AVG, group mean (mice; 2.5mg/kg): 20.1429 s
Rotarod D2 AVG, group mean (mice; 2.5mg/kg): 81.5714 s
Rotarod D3 AVG, group mean (mice; 2.5mg/kg): 111.786 s
Rotarod Total AVG, group mean (mice; 2.5mg/kg): 71.1667 s
Rotarod trial 1 (mice; 2.5mg/kg): 2 s and 8 s and 4 s and 23 s and 9 s and 22 s
Rotarod trial 2 (mice; 2.5mg/kg): 5 s and 11 s and 17 s and 22 s and 130 s and 10 s
Rotarod trial 3 (mice; 2.5mg/kg): 13 s and 135 s and 4 s and 46 s and 129 s and 117 s
Rotarod trial 4 (mice; 2.5mg/kg): 29 s and 169 s and 6 s and 101 s and 155 s and 230 s and 4 s
Rotarod trial 5 (mice; 2.5mg/kg): 15 s and 204 s and 111 s and 60 s and 154 s and 195 s and 10 s
Rotarod trial 6 (mice; 2.5mg/kg): 60 s and 172 s and 53 s and 88 s and 157 s and 272 s and 14 s
Rotarod D1 AVG (mice; 2.5mg/kg): 3.5 s and 9.5 s and 10.5 s and 12 s and 76.5 s and 13 s and 16 s
Rotarod D2 AVG (mice; 2.5mg/kg): 21 s and 152 s and 5 s and 73.5 s and 142 s and 117 s and 60.5 s
Rotarod D3 AVG (mice; 2.5mg/kg): 37.5 s and 188 s and 82 s and 74 s and 155.5 s and 233.5 s and 12 s
Rotarod Total AVG (mice; 2.5mg/kg): 20.6667 s and 116.5 s and 32.5 s and 53.1667 s and 124.667 s and 121.167 s and 29.5 s
Rotarod D1 AVG, group mean (mice; 5.0mg/kg): 27.2 s
Rotarod D3 AVG, group mean (mice; 5.0mg/kg): 90.7 s
Rotarod trial 1 (mice; 5.0mg/kg): 54 s and 21 s and 19 s and 2 s and 14 s and 5 s and 29 s and 3 s and 1 s
Rotarod trial 2 (mice; 5.0mg/kg): 96 s and 41 s and 147 s and 28 s and 9 s and 38 s and 8 s and 10 s and 16 s and 1 s
Rotarod trial 3 (mice; 5.0mg/kg): 47 s and 74 s and 152 s and 42 s and 51 s and 45 s and 18 s and 6 s and 5 s and 3 s
Rotarod trial 4 (mice; 5.0mg/kg): 46 s and 47 s and 178 s and 87 s and 35 s and 44 s and 66 s and 4 s and 32 s and 5 s
Rotarod trial 5 (mice; 5.0mg/kg): 80 s and 109 s and 179 s and 107 s and 92 s and 172 s and 35 s and 61 s and 62 s and 2 s
Rotarod trial 6 (mice; 5.0mg/kg): 110 s and 99 s and 139 s and 103 s and 133 s and 151 s and 84 s and 20 s and 69 s and 7 s
Rotarod D1 AVG (mice; 5.0mg/kg): 75 s and 31 s and 83 s and 15 s and 11.5 s and 20 s and 6.5 s and 19.5 s and 9.5 s and 1 s
Rotarod D2 AVG (mice; 5.0mg/kg): 46.5 s and 60.5 s and 165 s and 64.5 s and 43 s and 44.5 s and 42 s and 5 s and 18.5 s and 4 s
Rotarod D3 AVG (mice; 5.0mg/kg): 95 s and 104 s and 159 s and 105 s and 112.5 s and 161.5 s and 59.5 s and 40.5 s and 65.5 s and 4.5 s
Rotarod Total AVG (mice; 5.0mg/kg): 72.1667 s and 65.1667 s and 135.667 s and 61.5 s and 55.6667 s and 75.3333 s and 36 s and 21.6667 s and 31.1667 s and 3.167 s

Cc1cccc(-c2cc3nccc(N4CCOCC4)c3s2)c1 [BK40197]
elevated plus maze: time in the open arms (TgAPP mice): spent significantly greater time in the open arms of the elevated plus maze
Kp ([2]; 20 mg/kg IP): 0.251
Kp ([2]; 45 mg/kg IP): 0.201
Tmax ([2]; brain, 20 mg/kg single IP, read-out: Brain Tmax): 2 h
Tmax ([2]; brain, 45 mg/kg single IP, read-out: Brain Tmax): 2 h
AUC ([2]; serum, 20 mg/kg single IP): 928 ng·h/mL
Cmax ([2]; serum, 20 mg/kg single IP): 543 ± 82.3 ng/g
Tmax ([2]; serum, 20 mg/kg single IP, read-out: Serum Tmax): 1 h
AUC ([2]; serum, 45 mg/kg single IP): 1940 ng·h/mL
Cmax ([2]; serum, 45 mg/kg single IP): 1100 ± 165 ng/g
Tmax ([2]; serum, 45 mg/kg single IP, read-out: Serum Tmax): 1 h
brain penetrance ([2]; single IP dose, C57BL/6 mice): brain penetrant
